Reference: patent US10300155B2, “Alpha-synuclein ligands” (Washington University, priority 2015, dated 2019)
Several values for one entry are separate records, joined by “and”; a condition that tells them apart may be missing. Equal values may be shown once. Read-outs that look alike come from different tables or passages of the source.

Molecular target: T1, α-synuclein fibrils (Homo sapiens, UniProt P37840)
T1 construct: made in house; host or cells: E. coli BL21(DE3)RIL
Assay: ThT competitive assay for α-synuclein fibrils (Table 1)
Assay type: binding
Conditions: for EC50: α-synuclein fibrils
Description: Upon binding to amyloid fibrils, a peak at approximately 440 nm becomes dominant with the fluorescent emission maximum shifted to 480 nm. This is accompanied by a strong enhancement of the fluorescence.
α-Synuclein recombinant protein was produced in E. coli. […] Freshly transformed BL21 colonies were inoculated into 2 L baffled flasks containing 250 mL sterilized TB (1.2% bactotryptone, 2.4% yeast extract, 0.4% glycerol, 0.17 M KH2PO4, 0.72 M K2HPO4) with 50 μg/ml ampicillin, and incubated overnight at 37° C. with shaking.
To determine the concentration of fibrils, the reaction mixture (100 μL) was centrifuged at 18,000×g for 10 minutes to separate fibrils from monomer. The α-synuclein monomer and other soluble proteins in the supernatant were removed, and the fibril pellet was resuspended in 100 μL solution of Tris-HCl (20 mM) and NaCl (100 mM). This fibril suspension was used in a bicinchoninic acid (BCA) protein assay along with a bovine serum albumin (BSA) standard curve to determine the concentration of fibrils in the 72 hour fibril reaction mixture.
To prepare the fibrils for performing binding assays, the fibril reaction mixture prepared above was centrifuged at 18,000×g for 10 minutes.
Once the ThT-α-synuclein saturation binding curve and dissociation constant (Kd) were determined the competitive assay for determining the binding affinity of various test compounds was conducted. […] The mixture was incubated at room temperature for 60 minutes on the shaking plate. The fluorescent intensity for each cell was measured by the fluorescence reader at λex and λem. The Ki value for each compound was calculated by the corresponding inhibition curve.
The Ki values were derived from the EC50 values using the Cheng-Prusoff equation: Ki=EC50/(1+[radioligand]/Kd). See FIGS. 17.1-31.2 for the inhibition curves for each compound in the ThioT competitive binding assay.

[1] = average, read-out: Ki (nM) α-syn (avg)
[2] = individual determinations, read-out: Ki (nM) α-syn
[3] = average, read-out: EC50 (nM) EC50 (avg)
[4] = individual determinations, read-out: EC50 (nM) EC50

Fc1ccc(/C=C/c2ccsc2)cc1 [TZ-34-59]
Ki [1]: 860 nM | Ki [2]: 860 nM | EC50 [3]: 2250 nM | EC50 [4]: 2250 nM

Fc1ccc(/C=C/c2cccs2)cc1 [TZ-34-60]
Ki [1]: 1000 nM | Ki [2]: 1000 nM | EC50 [3]: 1000 nM | EC50 [4]: 1000 nM

Ic1ccc(/C=C/c2cccs2)cc1 [TZ-34-63]
Ki [1]: 80 nM | Ki [2]: 80 nM | EC50 [3]: 208 nM | EC50 [4]: 208 nM

Ic1ccc(/C=C/c2ccsc2)cc1 [TZ-34-64]
Ki [1]: 115 nM | Ki [2]: 115 nM | EC50 [3]: 300 nM | EC50 [4]: 300 nM

O=[N+]([O-])c1ccc(/C=C/c2cccs2)cc1 [TZ-34-74]
Ki [1]: 55 nM | Ki [2]: 55 nM | EC50 [3]: 145 nM | EC50 [4]: 145 nM

Ic1ccc(/C=C/c2ccoc2)cc1 [TZ-34-86]
Ki [1]: 134 nM | Ki [2]: 117 nM and 152 nM | EC50 [3]: 352 nM | EC50 [4]: 306 nM and 398 nM

COc1ccc(/C=C/c2cc3ccccc3s2)cc1 [TZ-34-87]
Ki [1]: 884 nM | Ki [2]: 884 nM | EC50 [3]: 2310 nM | EC50 [4]: 2310 nM

COc1ccc(/C=C/c2ccc(C(=O)NCCF)s2)cc1 [TZ-34-94]
Ki [1]: 160 nM | Ki [2]: 223 nM and 61 nM and 197 nM | EC50 [3]: 419 nM | EC50 [4]: 583 nM and 160 nM and 514 nM

CN(C)c1ccc(/C=C/C=C/c2cccs2)cc1 [TZ-34-97]
Ki [1]: 69 nM | Ki [2]: 69 nM | EC50 [3]: 180 nM | EC50 [4]: 180 nM

C(=C\c1cccs1)/c1ccncc1 [TZ-34-100]
Ki [1]: 604 nM | Ki [2]: 604 nM | EC50 [3]: 1580 nM | EC50 [4]: 1580 nM

O=[N+]([O-])c1ccc2nc(/C=C/c3cnccn3)ccc2c1 [TZ-36-20]
Ki [1]: 926 nM | Ki [2]: 926 nM | EC50 [3]: 2420 nM | EC50 [4]: 2420 nM

Fc1ccc2nc(/C=C/c3cnccn3)ccc2c1 [TZ-36-22]
Ki [1]: 109 nM | Ki [2]: 109 nM | EC50 [3]: 286 nM | EC50 [4]: 286 nM

Brc1ccc2nc(/C=C/c3cnccn3)ccc2c1 [TZ-36-24]
Ki [1]: 453 nM | Ki [2]: 453 nM | EC50 [3]: 1190 nM | EC50 [4]: 1190 nM
